Assay results taken from patent publication US11098007B2, “Crystal of amino acid salt of 3-hydroxyisovaleric acid and production method thereof” (KYOWA HAKKO BIO CO., LTD., priority 2016, dated 2021).
Read-outs that look alike come from different tables or passages of the source.

Assays:
surgically stressed rats [1] = conditions: rat, in vivo
Method: (§1) The solution was continuously administered to surgically stressed rats underwent intestinal tract scratch operation at a normal dose (240 mL/kg/day) for 3 days. On the final day of administration, urine was collected by 24-hour urine collection and measured for the urinary electrolyte concentration.

surgically stressed rats [2] = assay: Effect on body electrolyte: urinary electrolyte after continuous administration in glucose-electrolytes infusion solution (SOLITA-T No. 3)
Method: as §1

[3] = HMB final concentration 0.42 weight/volume % in SOLITA-T No. 3, 240 mL/kg/day for 3 days, 24-hour urine of the final day

SMILES | Electrolyte abnormality (urinary calcium, urinary phosphate) in combined administration with SOLITA-T No. 3 infusion solution (surgically stressed rats [1]) | Urinary calcium excretion amount (surgically stressed rats [2]; [3]) | Urinary phosphate excretion amount (surgically stressed rats [2]; [3]) | Electrolyte abnormality (urinary calcium, urinary phosphate) in combined administration with SOLITA-T No. 3 infusion solution (surgically stressed rats [2]; in words)
CC(C)(O)CC(=O)[O-].CC(C)(O)CC(=O)[O-].[Ca+2] [Calcium salt hydrate of HMB, calcium salt hydrate of HMB] | induces the increase in urinary calcium and the decrease in urinary phosphate excretion |  |  | 
CC(C)(O)CC(=O)O.N=C(N)NCCCC(N)C(=O)O (stereo not shown) [Arginine salt nonhydrate of HMB, arginine salt nonhydrate of HMB] |  | 0.24 mg/day | 19.1 mg/day | does not induce the above electrolyte abnormality
